Reference: PMC12775819, “Optimizing PSMA-617-based inhibitors through charged linker modifications: Insights into structure-activity relationships” (Theranostics, 2026)
Non-standard residues stand in square brackets, D forms with d. Residues, ends and D or L forms follow the SMILES beside them. *: point of attachment. DOTA = O=C(O)CN1CCN(CC(=O)O)CCN(CC(=O)*)CCN(CC(=O)O)CC1; EuK = O=C(O)CC[C@H](NC(=O)N[C@@H](CCCCN*)C(=O)O)C(=O)O; 2Nal = N[C@@H](Cc1ccc2ccccc2c1)C(=O)O; Trx = NC[C@H]1CC[C@H](C(=O)O)CC1

Tests used:
[1] = Static small-animal PET imaging 1 h and 2 h p.i.; conditions: male, BALB/c nu/nu, mouse, iv, 500 pmol, total radioactivity; for SUV at 1 h / SUV at 2 h: 68Ga-labeled, 0.5 nmol i.v., n = 1, SD from VOIs; for SUV at 1 h: static PET 1 h p.i.; for SUV at 2 h: static PET 2 h p.i.
[2] = Dynamic small-animal PET imaging (0 - 60 min); conditions: male, BALB/c nu/nu, mouse, tumor (LNCaP xenograft), iv, 500 pmol, total radioactivity
[3] = in vivo; conditions: male, BALB/c nu/nu, mouse, iv, 500 pmol, total radioactivity
[4] = in vivo; conditions: male, BALB/c nu/nu, mouse, iv, 500 pmol, total radioactivity; remark: listed apart in the source
[5] = tumor (LNCaP xenograft), SUV tumor

SUV at 1 h ([1]; kidneys, SUV kidneys) | SUV at 2 h ([1]; kidneys, SUV kidneys) | SUV at 1 h [1, 5] | SUV at 2 h [1, 5] | tissue to tissue ratio at 1 h ([1]; tumor / muscle) | SUV at 1 h [2] | tissue to tissue ratio at 1 h [3] | tissue to tissue ratio at 1 h [4] | tissue to tissue ratio at 2 h [4] | SMILES
3.81 ± 0.15 SUV | 2.77 ± 0.2 SUV | 1.15 ± 0.04 SUV | 1.07 ± 0.09 SUV | 10.5 ± 0.2 | 1.07 SUV |  |  |  | O=C(O)CC[C@H](NC(=O)N[C@@H](CCCCNC(=O)[C@H](Cc1ccc2ccccc2c1)NC(=O)[C@H]1CC[C@H](CNC(=O)[C@H](CCC(=O)O)NC(=O)[C@H](Cc2c[nH]cn2)NC(=O)[C@H](CCC(=O)O)NC(=O)[C@H](Cc2c[nH]cn2)NC(=O)[C@H](CCC(=O)O)NC(=O)[C@H](Cc2c[nH]cn2)NC(=O)CN2CCN(CC(=O)O)CCN(CC(=O)O)CCN(CC(=O)O)CC2)CC1)C(=O)O)C(=O)O [[^68Ga]Ga-PS4, metal not drawn] ({DOTA}-HEHEHE[Trx][2Nal]-EuK)
 |  |  |  |  |  | 0.633 | 0.66 ± 0.15 | 1.15 ± 0.27 | O=C(O)CC[C@H](NC(=O)N[C@@H](CCCCNC(=O)[C@H](Cc1ccc2ccccc2c1)NC(=O)[C@H]1CC[C@H](CNC(=O)[C@H](Cc2c[nH]cn2)NC(=O)[C@H](Cc2c[nH]cn2)NC(=O)[C@H](Cc2c[nH]cn2)NC(=O)CN2CCN(CC(=O)O)CCN(CC(=O)O)CCN(CC(=O)O)CC2)CC1)C(=O)O)C(=O)O [[^68Ga]Ga-PS11, metal not drawn] ({DOTA}-HHH[Trx][2Nal]-EuK)
